Test results: ChEMBL document CHEMBL1914392, “Comparative studies on interactions of baicalein, baicalin and scutellarin with lysozyme” (2011)
≈ marks a conversion by molar mass, not a printed value. Calls of active or inactive are those of the source. The calls are words filed in the database; no cut-off is given here.

Experiments:
Gallus gallus [1] = species on record: Gallus gallus; assay: Binding affinity to hen egg white lysozyme assessed as quenching rate constant at 298 K by Stern-Volmer plot analysis
Gallus gallus [2] = species on record: Gallus gallus; assay: Binding affinity to hen egg white lysozyme assessed as effective quenching constant at 310 K by Lineweaver-Burk plot analysis
Gallus gallus [3] = species on record: Gallus gallus; assay: Binding affinity to hen egg white lysozyme assessed as quenching rate constant at 310 K by Stern-Volmer plot analysis
Gallus gallus [4] = species on record: Gallus gallus; assay: Binding affinity to hen egg white lysozyme assessed as Stem-Volmer dynamic quenching constant at 298 K by Stern-Volmer plot analysis
Gallus gallus [5] = species on record: Gallus gallus; assay: Binding affinity to hen egg white lysozyme assessed as Stem-Volmer dynamic quenching constant at 310 K by Stern-Volmer plot analysis
Gallus gallus [6] = species on record: Gallus gallus; assay: Binding affinity to hen egg white lysozyme assessed as effective quenching constant at 298 K by Lineweaver-Burk plot analysis
Gallus gallus [7] = species on record: Gallus gallus; assay: Binding affinity to hen egg white lysozyme at 298 K
Gallus gallus [8] = species on record: Gallus gallus; assay: Binding affinity to hen egg white lysozyme at 310 K
Staphylococcus aureus [9] = assay: Antibacterial activity against Staphylococcus aureus; type: functional
Gallus gallus [10] = species on record: Gallus gallus; assay: Binding affinity to hen egg white lysozyme assessed as reduction in fluorescence intensity at 1 to 7 x 10^-6 M at 310 K
Staphylococcus aureus [11] = assay: Antibacterial activity against Staphylococcus aureus in presence of 25 mg/L lysozyme; type: functional
Gallus gallus [12] = species on record: Gallus gallus; assay: Binding affinity to hen egg white lysozyme assessed as reduction in fluorescence intensity at 1 to 7 x 10^-6 M at 298 K
Gallus gallus [13] = species on record: Gallus gallus; assay: Binding affinity to hen egg white lysozyme in presence of 2 x10'-3 M

Structure (SMILES) | Kq (Gallus gallus [1]) [×10¹³ L/mol/s] | Kq (Gallus gallus [2]) | Kq (Gallus gallus [3]) | KSV (Gallus gallus [4]) [×10⁵ L/mol] | KSV (Gallus gallus [5]) | Kq (Gallus gallus [6]) [×10⁵ L/mol] | K (Gallus gallus [7]) | K (Gallus gallus [8]) [×10⁵ L/mol] | MIC50 (Staphylococcus aureus [9]) [µg/mL] | Activity (Gallus gallus [10]) | MIC50 (Staphylococcus aureus [11]) [µg/mL] | Activity (Gallus gallus [12]) | K (Gallus gallus [13])
CC(C)(CO)[C@@H](O)C(=O)NCCC(=O)O | 1.02 | 5.27 ×10⁴ L/mol | 8.03 ×10¹² L/mol/s | 1.04 | 8.05 ×10⁴ L/mol | 1.28 |  |  |  |  |  |  | 
O=c1cc(-c2ccccc2)oc2cc(O)c(O)c(O)c12 [BAICALEIN] | 2.02 | 1.68 ×10⁵ L/mol | 1.75 ×10¹³ L/mol/s | 2.02 | 1.75 ×10⁵ L/mol | 1.77 | 3.39 ×10⁵ L/mol | 2.14 | 550 (≈ 2040 µM) | Active | 350 | Active | 1.5 ×10⁸ Lmol
O=C(O)[C@H]1O[C@@H](Oc2cc3oc(-c4ccccc4)cc(=O)c3c(O)c2O)[C@H](O)[C@@H](O)[C@@H]1O [BAICALIN] | 1.25 | 1.16 ×10⁵ L/mol | 1.14 ×10¹³ L/mol/s | 1.25 | 1.14 ×10⁵ L/mol | 1.74 | 2.95 ×10⁴ L/mol | 1.02 | 450 (≈ 1010 µM) | Active | 350 | Active | 1.17 ×10⁶ Lmol
O=C(O)[C@H]1O[C@@H](Oc2cc3oc(-c4ccc(O)cc4)cc(=O)c3c(O)c2O)[C@H](O)[C@@H](O)[C@@H]1O [SCUTELLARIN] | 1.63 | 1.15 ×10⁵ L/mol | 1.55 ×10¹³ L/mol/s | 1.63 | 1.55 ×10⁵ L/mol | 1.25 | 7.76 ×10⁵ L/mol | 3.98 | 650 (≈ 1410 µM) | Active | 500 | Active | 2.24 ×10⁶ Lmol
